“Also recorded” adds a separate entry of the source.
How the values were obtained:
[1] = tested on: presynaptic dopaminergic receptor (autoreceptor); experiment: Spontaneous exploratory motor activity of rats, enantiomers of 3-PPP; assay type: in vivo, rat
Protocol: 1. Evidence for presynaptic dopaminergic receptor (autoreceptor) agonist activity of both enantiomers of 3-PPP. Both enantiomers of 3-PPP cause a dose-dependent decrease in spontaneous exploratory motor activity of rats. […] However, the (+)-enantiomer causes a decrease only after doses between 0.25 and 4 mg/kg s.c.

dopa formation = experiment: Dopa formation and dopamine metabolite levels in rats not pretreated with GBL or reserpine; assay type: in vivo, rat
[2] = tested on: postsynaptic dopaminergic receptors; experiment: Locomotor activity in reserpine-treated rats, enantiomers of 3-PPP; assay type: in vivo, rat; conditions: reserpine-treated rats; (+)-form 0.25 to 64 mg/kg
Description: 2. Evidence for postsynaptic dopaminergic receptor agonist activity of (+)-3-PPP.

[3] = tested on: postsynaptic dopaminergic receptor; experiment: Antagonism of apomorphine-induced locomotor stimulation; assay type: in vivo, rat
Protocol: 3. Evidence for postsynaptic dopminergic receptor antagonist activity of (-)-3-PPP.
The locomotor stimulating action of the dopamine receptor aqonist apomorphine is antagonized by (-)-3-PPP. […] Thus the postsynaptic receptor antagonist activity requires a larger dose than the presynaptic receptor agonist activity, which is evident after doses down to 0.25 mg/kg.
Further, (-)-3-PPP and racemic 3-PPP have been compared regarding antagonism of apomorphine-induced locomotor stimulation. Either form of 3-PPP was injected subcutaneously in a dose of 8 mg/kg 20 min and apomorphine in a dose of 1 mg/kg subcutaneously 5 min before placing the rats in the Motron for 30 min. Shown are the counts per 30 min., means± s.e.m. and number of experiments (n).

[4] = tested on: presynaptic dopaminergic receptors and postsynaptic dopaminergic receptors; experiment: Antagonism of the locomotor stimulating activity of (+)-amphetamine; conditions: in vivo
Description: This effect is probably the result of the simultaneous stimulation of presynaptic dopaminergic receptors and partial blockade of postsynaptic dopaminergic receptors. All the major antipsychotic agents in current use are potent amphetamine antagonists, and such activity is considered to be predictive of antipsychotic action.

[5] = tested on: dopaminergic receptors (presynaptic and postsynaptic); experiment: Dopaminergic receptor profile of 3-PPP and its enantiomers (summary of tests); assay type: in vivo; conditions: summary of enantiomer tests
Description: The two enantiomers of 3-PPP have now been tested separately.

## CCCN1CCCC(c2cccc(O)c2)C1.Cl (single isomer, unassigned; (-)) [(-)-3-PPP, (-)-3-(3-Hydroxyphenyl)-N-n-propylpiperidine hydrochloride]
[1]; doses between 0.053 and 64 mg/kg s.c.
  effect on locomotor activity over dose range: a decrease after all these doses, with no reversal of the effect after larger doses
[1]; presynaptic receptor agonist activity
  doses down to which presynaptic receptor agonist activity is evident: 0.25 mg/kg
[1]; s.c., first 30 min
  decrease of locomotor activity to % of control: 30-40 % of control
Dopa formation; 0.053 to 64 mg/kg, no pretreatment, limbic region
  dopa formation, limbic region: no change
Dopa formation; 0.053 to 64 mg/kg, no pretreatment, striatum
  dopa formation, striatum: increase
Dopa formation; matched to the changes in dopa formation
  levels of 3,4-dihydroxyphenyl acetic acid and homovanillic acid: corresponding changes in the levels of the dopamine metabolites
Dopa formation; rat striatum
  dopa formation and dopamine metabolite levels in rat striatum: stimulate dopa formation and to raise dopaminemetabolite levels in rat striatum
[2]
  stimulation of locomotor activity: only a very weak stimulation of motor activity
[3]; 2 mg/kg
  antagonism of apomorphine locomotor stimulation: not after 2 mg/kg
[3]; 8 mg/kg s.c. + apomorphine 1 mg/kg s.c., means ± s.e.m., n=5
  counts per 30 min., with apomorphine: 276 ± 50 counts per 30 min.
[3]; 8 mg/kg s.c., hydrochloride
  antagonism of apomorphine locomotor stimulation: clearcut; also recorded: antagonized said stimulation
[4]
  antagonism of (+)-amphetamine locomotor stimulating activity: striking antagonistic action
[5]
  activity on presynaptic and postsynaptic dopaminergic receptors: capable of activating the presynaptic dopaminergic receptors (autoreceptors) but concomitantly reduced the sensitivity of the postsynaptic dopaminergic receptors to dopaminergic agonists
